Test results taken from patent publication US6799123B2, “Dissolution test equipment and method” (priority 2001, dated 2004).
Where two headings read alike, the source gives them in different places.

What was measured:
[1] = cited from earlier work
[2] = Single cell dissolution test (comparative); format: physicochemical; details: flow rate optimized to match in vivo data
Protocol: Equipment was set up as follows: A continuous, stirred, filtration cell, such as the Amicon stirred ultrafiltration cell model 8050, available from Millipore Corporation, was equipped with a peristaltic pump to feed fluid into the cell at a rate in the range 3-10 ml/min. The filtrate from the cell was passed into a 1 cm path length flow-through quartz uv cell. The uv cell is situated in a suitable uv spectrophotometer, such as the Genesys 2, UV Spectrophotemer available from Spectronic Instruments. The filtration cell was fitted with a 3 micron filter to retain undissolved particles. 60 ml of simulated intestinal fluid pH 7.4 was added to the filtration cell, and then simulated intestinal fluid was fed into it via the pump at a flow rate of 6.5 ml/min. This was continued until the absorbance at 276 nm as measured in the uv cell was constant. 50 mg of diclofenac sodium was then added to the filtration cell. The uv absorbance at 276 nm of the effluent from the cell was recorded through the duration of the test. The concentration was calculated using a suitably determined calibration curve. In Table 1 the data from this experiment is compared with in vivo data reported in U.S. Pat. No. 4,510,128. The flow rate for this example was optimized such that the uv absorbance returned to baseline within approximately the same time (8 hours) as the in vivo data.

[3] = in vivo blood plasma concentration profile from literature; cited from earlier work

In the case of `O=C(O)Cc1ccccc1Nc1c(Cl)cccc1Cl` [diclofenac sodium], the solubility ([1]; low pH of the stomach) is given as “essentially insoluble”, the solubility ([1]; near neutral conditions of the upper GI) is given as “soluble” and the “time for uv absorbance of effluent to return to baseline” value [2] is given as ~8 h.

For `CC(C)Cc1ccc(C(C)C(=O)O)cc1` (stereo not drawn) [ibuprofen], the “t10 for in vivo data (time after Cmax to fall to 10% of Cmax)” value [3] is listed as 410 min and the “tmax for in vivo data” value [3] is listed as 1.17 h.

For `CC(=O)Nc1ccc(O)cc1` [paracetamol], the “t10 for in vivo data (time after Cmax to fall to 10% of Cmax)” value [3] is given as 510 min and the “tmax for in vivo data” value [3] is given as 0.55 h.

For `CN[C@@H](C)[C@@H](O)c1ccccc1` [pseudoephedrine], the “t10 for in vivo data (time after Cmax to fall to 10% of Cmax)” value [3] is listed as 1380 min and the “tmax for in vivo data” value [3] is listed as 1.5 h.
